This is an account of results in US20130035255A1, “CONTROLLED RELEASE HYBRID SYSTEMS” (priority 2010, published 2013).

Where no end group is shown, it is not given here.

The term Kd denotes the equilibrium constant for the complex coming apart. Read a high Kd as lower affinity.

Assay [1] has as its target HIV integrase (1-210 aa) and the peptide LYETILILLFLDVDT (SEQ ID NO:7) (Human immunodeficiency virus type 1 group M subtype B, UniProt P04585, G1270S/R1274K). It counts as cell-based. As to conditions: yeast screening strain.
Assay [2] addresses GAL4^AD-HIV integrase (1-210 a.a.) and GAL4^BD-PR^LBD-INF5 (Homo sapiens, UniProt P06401). Kind of assay: steroid release two hybrid yeast LacZ assay (CUG fluorescence). As to conditions: strain expressing integrase fused to GAL4^AD and the interacting peptide. Type of assay: cell-based.
The next assay concerns the target GAL^BD-PRNHR-GAL^AD (Homo sapiens, UniProt P06401). It counts as cell-based, yeast. As to conditions: control strain, FIG. 4.
The target in a further assay is HIV integrase (Human immunodeficiency virus type 1 group M subtype B, UniProt P04585). Kind of assay: biochemical. It counts as binding.
Assay [3] deals with T1, GAL4^AD control (pVT 702, GAL4 activation domain alone).
T1 construct: also called pADH-GAL^AD base vector
T1 chain: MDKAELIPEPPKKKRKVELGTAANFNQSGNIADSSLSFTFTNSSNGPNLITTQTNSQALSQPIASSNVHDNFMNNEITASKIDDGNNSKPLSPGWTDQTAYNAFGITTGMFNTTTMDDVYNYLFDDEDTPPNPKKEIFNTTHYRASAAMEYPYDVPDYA
Put plainly: steroid release yeast two-hybrid, LacZ reporter.

For `CC(=O)[C@H]1CC[C@H]2[C@@H]3CCC4=CC(=O)CC[C@]4(C)[C@H]3CC[C@]12C` [progesterone], the signal-to-background in assay [1] (8 μM progesterone) is approximately 4; at GAL^BD-PRNHR-GAL^AD, approximately 100. Also, the expression of beta-galactosidase entry in assay [1] (FIG. 3 dose response) was “stimulated expression of beta-galactosidase”. Moreover, in assay [2], the “signal (RFU)” value was “increase in signal”.

“LYETILILLFLDVDT [SEQ ID NO:7, LYETILILLFLDVDT]” registered a Kd on HIV integrase of approximately 5 µM.

B1: GAL4^BD-PR^LBD-INF5 hybrid protein (GAL4 DNA binding domain fused to the progesterone receptor ligand binding domain and the HIV integrase inhibitory peptide … (other)
chain: MKLLSSIEQACDICRLKKLKCSKEKPKCAKCLKNNWECRYSPKTKRSPLTRAHLTEVESRLERLEQLFLLIFPREDLDMILKMDSLQDIKALLTGLFVQDNVNKDAVTDRLASVETDMPLTLRQHRISATSSSEESSNKGQRQLTVSPVLQYPALTMIQLIPPLINLLMSIEPDVIYAGHDNTKPDTSSSLLTSLNQLGERQLLSVVKWSKSLPGFRNLHIDDQITLIQYSWMSLMVFGLGWRSYKHVSGQMLYFAPDLILNEQRMKESSFYSLCLTMWQIPQEFVKLQVSQEEFLCMKVLLLLNTIPLEGLRSQTQFEEMRSSYIRELIKAIGLRQKGVVSSSQRFYQLTKLLDNLHDLVKQLHLYCLNTFIQSRALSVEFPEMMSEVIAAQLPKILAGMVKPLLFHKALYETILILLFLDVDT
notes: also called GAL4^BD-PR^LBD-IN5
For B1, the binding result in assay [3] is “no binding”.
